In patent publication US8221991B2, “Orphan nuclear receptor” (priority 1998, dated 2012):
pIC50: −log10 of the molar value. “Also recorded” adds a separate entry of the source.

How the values were obtained:
Biotin-His6-PXR/RXRα = target: T1, Biotin-His6-PXR/RXRα (Homo sapiens, UniProt O75469); assay: biochemical
T1 sequence (O75469 with tags, fused parts or gaps): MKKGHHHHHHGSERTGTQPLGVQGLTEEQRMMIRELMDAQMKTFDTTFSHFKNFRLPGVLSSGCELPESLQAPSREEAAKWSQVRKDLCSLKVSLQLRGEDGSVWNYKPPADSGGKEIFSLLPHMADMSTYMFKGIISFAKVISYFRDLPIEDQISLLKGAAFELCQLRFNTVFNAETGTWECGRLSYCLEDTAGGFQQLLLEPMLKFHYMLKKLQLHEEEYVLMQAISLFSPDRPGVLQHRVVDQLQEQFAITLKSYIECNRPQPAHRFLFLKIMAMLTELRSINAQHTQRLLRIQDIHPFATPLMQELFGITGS
T1 sequence (P19793 with tags, fused parts or gaps partner limits assumed): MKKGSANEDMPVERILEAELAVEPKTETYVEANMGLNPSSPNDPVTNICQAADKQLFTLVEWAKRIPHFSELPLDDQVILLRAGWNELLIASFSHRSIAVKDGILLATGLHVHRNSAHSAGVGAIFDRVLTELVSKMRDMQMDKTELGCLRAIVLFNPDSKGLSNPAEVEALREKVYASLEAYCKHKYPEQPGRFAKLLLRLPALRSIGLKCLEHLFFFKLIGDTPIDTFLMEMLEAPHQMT
Description: Test compounds were dissolved in DMSO at 10 mM and diluted 1:10 in DMSO before serially diluting in assay buffer. […] Streptavidin-PVT SPA beads (AmershamPharmacia cat 4 RPNQ0007) were resuspended in assay buffer (50 mM Tris HCl pH 8.0, 50 mM KCl, 1 mM DTT, 0.1 mg/ml essentially fatty acid free bovine serum albumin) at 0.5 mg/ml. Biotin-His6-PXR/RXRα was added to the beads to a final concentration of 50 nM. The receptors were allowed to couple to the SPA beads for thirty minutes at room temperature. The uncoupled receptor was removed by centrifuging the SPA beads at 3000 rpm for 5 minutes in a swinging bucket rotor of a Rupp & Bowman Silencer centrifuge. The receptor coated SPA beads were then resuspended in assay buffer to 3.3 mg/ml. […] The total volume in each well was 100 μL. […] The plates were then allowed to incubate at room temperature until equilibrium was obtained, approximately 1.5 hours. The plates were then counted on a TopCount liquid scintillation counter (Packard) using a protocol optimized for ^3H PVT SPA and programmed to correct for color quenching.

hPXR [1] = target: T2, hPXR (Homo sapiens, UniProt O75469); assay: Cotransfection assay, pSG5-hPXR ATG with (IR6)3-tk-CAT reporter in CV-1 cells; settings: for activation of hPXR (CAT activity): 1 μM lovastatin, 100 μM phenobarbital, 10 μM of the other compounds
T2 sequence (O75469 1-434): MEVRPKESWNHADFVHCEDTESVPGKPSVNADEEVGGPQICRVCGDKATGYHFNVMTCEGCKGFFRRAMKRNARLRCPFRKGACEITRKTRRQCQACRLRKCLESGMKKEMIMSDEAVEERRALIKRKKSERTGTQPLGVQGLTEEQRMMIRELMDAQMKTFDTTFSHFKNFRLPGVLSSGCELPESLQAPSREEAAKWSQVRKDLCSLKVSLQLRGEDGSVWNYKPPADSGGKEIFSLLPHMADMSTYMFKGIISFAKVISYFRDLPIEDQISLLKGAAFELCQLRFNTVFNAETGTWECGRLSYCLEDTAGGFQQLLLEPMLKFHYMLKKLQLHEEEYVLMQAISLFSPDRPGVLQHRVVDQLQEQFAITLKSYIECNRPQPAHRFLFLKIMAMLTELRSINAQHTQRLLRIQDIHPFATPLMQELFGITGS
Description: (§1) Cells were treated with 1 μM mevastatin or lovastatin, 100 μM phenobarbital, or 10 μM of the other compounds. Cell extracts were subsequently assayed for CAT activity. […] (FIG. 4C) CARLA was performed with bacterially-expressed GST-hPXR or GST-mPXR1 and [^35S]SRC1.14 synthesized in vitro. […] [^35S]SRC1.14 complexed with GST-hPXR (top panel) or GST-mPXR1 (bottom panel) was precipitated with glutathione-sepharose beads.
(§2) CV-1 cells were plated in 24-well plates in DME medium supplemented with 10% charcoal-stripped fetal calf serum at a density of 1.2×10^5 cells per well. […] Cells were transfected overnight by lipofection using Lipofectamine (Life Technologies, Inc.), according to the manufacturer's instructions. The medium was changed to DME medium supplemented with 10% delipidated calf serum (Sigma) and cells were incubated for an additional 24 hours.
To determine, whether hPXR could regulate transcription through the IR6 motif, a reporter plasmid was generated containing three copies of the CYP3A4 IR6 response element upstream of the tk promoter and CAT gene.
It was next determined whether hPXR might mediate the effects of some or all of these compounds on CYP3A4 expression. CV-1 cells were cotransfected with the pSG5-hPXR ATG expression plasmid and the (IR6)3-tk-CAT reporter plasmid, and the cells were treated with micromolar concentrations of a number of compounds that are known to induce CYP3A gene expression in humans and/or rodents.

GST-mPXR1 [2] = target: T3, GST-mPXR1 (Mus musculus, UniProt O54915); settings: Kliewer et al, Cell 92:73-82 (1998); cited from earlier work
T3 construct: The LBDs of hPXR and mPXR1 were expressed in E. coli as fusion proteins with glutathione-S-transferase (GST); made in house; host or cells: E. coli

CYP3A4 gene expression = settings: cited from earlier work
mPXR1 = mPXR1 (Mus musculus, UniProt O54915); settings: CV-1 cells, (IR6)3-tk-CAT reporter; 10 μM
CYP3A1 levels = settings: cited from earlier work
GST-mPXR1 [3] = target: T3, GST-mPXR1; assay: Coactivator-receptor ligand assay (CARLA), GST-mPXR1 with [35S]SRC1.14; format: binding; settings: 10 μM
Description: as §1
GST-hPXR fusion protein was expressed in BL21(DE3)plysS cells and bacterial extracts prepared by one cycle of freeze-thaw of the cells in Protein Lysis. Buffer containing 10 mM Tris, pH 8.0, 50 mM KCl, 10 mM DTT, and 1% NP-40 followed by centrifugation at 40,000×g for 30 minutes. Glycerol was added to the resulting supernatant to a final concentration of 10%. Lysates were stored at −80° C. [^35S]SRC1.14 was generated using the TNT rabbit reticulocyte system (Promega) in the presence of Pro-Mix (Amersham). Coprecipitation reactions included 25 μl of lysate containing GST-hPXR fusion protein, 25 μl Incubation Buffer (50 mM KCl, 40 mM HEPES pH 7.5, 5 mM β-mercaptoethanol, 1% Tween-20, 1% non-fat dry milk), 5 μl […], and vehicle (1% DMSO) or compounds as indicated. […]

hPXR [4] = target: T2, hPXR; settings: CV-1 cells; 10 μM
Description: FIGS. 1A-1D. […] Cell extracts were subsequently assayed for CAT activity.
as §2

T3 sequence (O54915 143-430 limits assumed): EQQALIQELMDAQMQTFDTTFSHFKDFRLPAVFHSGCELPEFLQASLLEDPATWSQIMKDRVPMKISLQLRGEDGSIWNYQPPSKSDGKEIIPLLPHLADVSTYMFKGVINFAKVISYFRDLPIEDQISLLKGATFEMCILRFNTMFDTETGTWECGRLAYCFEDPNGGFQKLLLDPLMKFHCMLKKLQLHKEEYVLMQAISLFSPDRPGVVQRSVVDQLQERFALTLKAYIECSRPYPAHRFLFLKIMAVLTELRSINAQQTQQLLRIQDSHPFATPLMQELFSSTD
T3 sequence (Q15788 whole entry partner, the tested form may be a part): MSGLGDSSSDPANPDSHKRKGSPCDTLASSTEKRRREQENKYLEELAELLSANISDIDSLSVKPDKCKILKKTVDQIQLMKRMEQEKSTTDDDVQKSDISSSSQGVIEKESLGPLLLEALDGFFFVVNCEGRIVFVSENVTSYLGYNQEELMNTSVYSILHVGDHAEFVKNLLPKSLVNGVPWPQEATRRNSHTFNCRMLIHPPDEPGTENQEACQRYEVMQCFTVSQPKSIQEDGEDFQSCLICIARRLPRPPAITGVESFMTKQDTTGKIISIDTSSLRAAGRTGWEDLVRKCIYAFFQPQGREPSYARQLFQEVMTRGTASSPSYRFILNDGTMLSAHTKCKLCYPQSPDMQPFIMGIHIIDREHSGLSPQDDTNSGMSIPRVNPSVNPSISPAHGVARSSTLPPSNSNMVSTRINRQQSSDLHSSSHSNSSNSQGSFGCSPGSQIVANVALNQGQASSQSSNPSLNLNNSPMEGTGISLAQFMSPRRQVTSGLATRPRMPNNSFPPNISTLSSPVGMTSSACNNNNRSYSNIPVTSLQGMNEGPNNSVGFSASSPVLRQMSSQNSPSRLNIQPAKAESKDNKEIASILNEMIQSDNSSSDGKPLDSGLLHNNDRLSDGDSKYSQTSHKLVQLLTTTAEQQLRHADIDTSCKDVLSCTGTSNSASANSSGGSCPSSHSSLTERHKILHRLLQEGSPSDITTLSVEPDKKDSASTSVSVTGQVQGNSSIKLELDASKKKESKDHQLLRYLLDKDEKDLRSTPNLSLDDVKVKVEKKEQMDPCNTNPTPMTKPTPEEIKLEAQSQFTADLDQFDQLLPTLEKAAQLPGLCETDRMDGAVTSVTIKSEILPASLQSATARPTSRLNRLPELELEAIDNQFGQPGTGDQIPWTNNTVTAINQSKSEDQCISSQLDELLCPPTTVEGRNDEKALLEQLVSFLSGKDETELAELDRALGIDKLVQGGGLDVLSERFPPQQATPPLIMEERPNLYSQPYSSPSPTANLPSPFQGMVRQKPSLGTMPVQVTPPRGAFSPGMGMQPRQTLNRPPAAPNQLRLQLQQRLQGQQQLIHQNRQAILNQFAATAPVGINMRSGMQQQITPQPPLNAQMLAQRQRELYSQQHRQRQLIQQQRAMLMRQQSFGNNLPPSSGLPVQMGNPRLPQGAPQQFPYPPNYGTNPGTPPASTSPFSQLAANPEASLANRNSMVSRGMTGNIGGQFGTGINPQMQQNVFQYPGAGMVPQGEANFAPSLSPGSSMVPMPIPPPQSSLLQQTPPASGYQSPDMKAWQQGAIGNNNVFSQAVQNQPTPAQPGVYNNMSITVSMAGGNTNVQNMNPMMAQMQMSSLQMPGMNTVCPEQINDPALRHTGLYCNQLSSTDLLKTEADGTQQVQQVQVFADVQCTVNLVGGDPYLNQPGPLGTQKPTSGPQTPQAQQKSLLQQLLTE
mPXR1, sequence (O54915 whole entry): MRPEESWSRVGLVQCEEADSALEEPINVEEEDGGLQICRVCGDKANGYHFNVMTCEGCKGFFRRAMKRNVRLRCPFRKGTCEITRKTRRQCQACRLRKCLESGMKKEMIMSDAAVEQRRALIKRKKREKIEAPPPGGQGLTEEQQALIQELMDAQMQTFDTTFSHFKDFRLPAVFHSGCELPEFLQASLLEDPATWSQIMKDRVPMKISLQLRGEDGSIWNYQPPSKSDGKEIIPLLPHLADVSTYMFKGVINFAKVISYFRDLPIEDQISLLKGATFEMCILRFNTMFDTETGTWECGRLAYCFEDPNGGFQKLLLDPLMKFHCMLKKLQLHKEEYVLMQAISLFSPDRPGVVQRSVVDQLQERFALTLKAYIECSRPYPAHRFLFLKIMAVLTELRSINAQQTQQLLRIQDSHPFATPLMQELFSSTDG

CC(=O)[C@H]1CC[C@H]2[C@@H]3CC[C@@H]4CC(=O)CC[C@]4(C)[C@H]3CC[C@]12C [5 β-pregnane-3,20-dione]
pIC50 (Biotin-His6-PXR/RXRα): 6.00 | fold activation of hPXR (hPXR [1]; 10 μM): roughly 4 fold

CC(=O)[C@H]1[C@H](C#N)C[C@H]2[C@@H]3CC=C4C[C@@H](O)CC[C@]4(C)[C@H]3CC[C@@]21C [PCN]
activation of hPXR (CAT activity) (hPXR [1]): activated | interaction of the mPXR1 LBD with SRC1.14 (GST-mPXR1 [2]): promote the interaction | induction of CYP3A4 gene expression / CYP3A levels in human hepatocytes (CYP3A4 gene expression): only modest effects | fold activation of mPXR1 (mPXR1): roughly 9 fold | effect on CYP3A1 / CYP3A levels in rat hepatocytes (CYP3A1 levels): marked effects

Clc1ccccc1C(c1ccccc1)(c1ccccc1)n1ccnc1 [clotrimazole]
interaction between GST-mPXR1 and [35S]SRC1.14 (GST-mPXR1 [3]): did not | pIC50 (Biotin-His6-PXR/RXRα): 5.89

C[C@@H]1C[C@H]2[C@@H]3CCC4=CC(=O)C=C[C@]4(C)[C@@]3(F)[C@@H](O)C[C@]2(C)[C@@]1(O)C(=O)COC(=O)CC(C)(C)C [dexamethasone-t-butylacetate]
activation of hPXR (CAT activity), CYP3A1 DR3 PXRE reporter (hPXR [4]): activated efficiently | activation of hPXR (CAT activity) (hPXR [1]): induced reporter levels; also recorded: activated | activation of hPXR (CAT activity) (hPXR [1]; listed as Dexamethasone-t-butylacetate): most efficacious activators

CC[C@H](C)C(=O)O[C@H]1C[C@@H](C)C=C2C=C[C@H](C)[C@H](CC[C@@H]3C[C@@H](O)CC(=O)O3)[C@H]21 [lovastatin]
activation of hPXR (CAT activity) (hPXR [1]): activated; also recorded: more efficacious activators of hPXR than mPXR1

CCC1(c2ccccc2)C(=O)NC(=O)NC1=O [phenobarbital]
activation of hPXR (CAT activity) (hPXR [1]): activated; also recorded: more efficacious activators of hPXR than mPXR1

ClC1=C(Cl)[C@]2(Cl)[C@H]3[C@H]([C@H](Cl)C(Cl)[C@@H]3Cl)[C@@]1(Cl)C2(Cl)Cl (stereo partly drawn) [transnonachlor]
activation of hPXR (CAT activity) (hPXR [1]): activated
